Measured values as given in patent US20240165145A1, “COMPOSITIONS AND METHODS FOR TREATING CANCER AND BIOMARKERS TO DETECT CANCER STEM CELL REPROGRAMMING AND PROGRESSION” (The Regents of the University of California, priority 2016, published 2024).

Experiments:
ADAR1 isoforms (p150) = assay: qRT-PCR of ADAR1 expression in CD34+ cord blood cells co-transduced with lenti-JAK2 and lenti-BCR-ABL on SL/M2 stromal cultures; details: for ADAR1 expression: JAK2/BCR-ABL1 transduced progenitors, two weeks SL/M2 stromal co-culture, 8-Aza 10-25 nM, SAR302503 100 nM
[1] = system: ADAR-mediated A-to-I editing activity in K562 leukemia cells co-transduced with lenti-ADAR1 and lenti-JAK2; assay: Dual luciferase reporter assay of ADAR-specific RNA editing activity in K562 cells; type: cell-based, human; details: SAR302503 100 nM or 300 nM, 3 hrs
RNA editing of APOBEC3D = assay: RESSqPCR RNA editing ratio of APOBEC3D in CD34+ cord blood cells co-transduced with lenti-JAK2 and lenti-BCR-ABL; type: cell-based, human; details: JAK2/BCR-ABL1 transduced progenitors, two weeks SL/M2 stromal co-culture; 8-Aza 10-25 nM, SAR302503 100 nM
let-7 miRNA = assay: miRNA PCR of let-7 family in CD34+ cord blood cells co-transduced with lenti-JAK2 and lenti-BCR-ABL on SL/M2 stromal cultures; type: cell-based, human
Description: Human specific RPL27 primers were used as housekeeping control. MicroRNA extraction was performed using the RNeasy Micro Kit (Qiagen) according to the manufacturer's instructions. Then 30 ng of cDNA was prepared in a reverse transcription reaction using miScript RTII™ kit (Qiagen) and served as a template for the quantification of the expression of mature miRNA of interest. Also, qRT-PCR was performed using miRNA human-specific primers and SYBR Green Kit (Qiagen). MiScript™ primers, RNU6_2 (Qiagen), were used as housekeeping control.

LIN28B = LIN28B expression in CD34+ cord blood cells co-transduced with lenti-JAK2 and lenti-BCR-ABL; type: cell-based, human; details: JAK2/BCR-ABL1 transduced progenitors, two weeks SL/M2 stromal co-culture; 8-Aza 10-25 nM, SAR302503 100 nM
ADAR1 = target: T1, ADAR1 (Homo sapiens, UniProt P55265); assay: RESSqPCR RNA editing ratio of APOBEC3D in K562 cells transduced with ADAR1 WT or ADAR1 E912A mutant; type: cell-based; details: K562 leukemic cell line, lentiviral ADAR1 WT or ADAR1 E912A
T1 construct: Full-length human adenosine deaminase, RNA-specific (ADAR1), transcript variant 1; T2A-GFP cassette of the vector pCDH-EF1-T2A-GFP (self-cleaving 2A; any remnant on ADAR1 not described); expressed in transfected cells; host or cells: K562 leukemia cells, lentiviral transduction (pCDH backbone)
T1 sequence (P55265 1-1226): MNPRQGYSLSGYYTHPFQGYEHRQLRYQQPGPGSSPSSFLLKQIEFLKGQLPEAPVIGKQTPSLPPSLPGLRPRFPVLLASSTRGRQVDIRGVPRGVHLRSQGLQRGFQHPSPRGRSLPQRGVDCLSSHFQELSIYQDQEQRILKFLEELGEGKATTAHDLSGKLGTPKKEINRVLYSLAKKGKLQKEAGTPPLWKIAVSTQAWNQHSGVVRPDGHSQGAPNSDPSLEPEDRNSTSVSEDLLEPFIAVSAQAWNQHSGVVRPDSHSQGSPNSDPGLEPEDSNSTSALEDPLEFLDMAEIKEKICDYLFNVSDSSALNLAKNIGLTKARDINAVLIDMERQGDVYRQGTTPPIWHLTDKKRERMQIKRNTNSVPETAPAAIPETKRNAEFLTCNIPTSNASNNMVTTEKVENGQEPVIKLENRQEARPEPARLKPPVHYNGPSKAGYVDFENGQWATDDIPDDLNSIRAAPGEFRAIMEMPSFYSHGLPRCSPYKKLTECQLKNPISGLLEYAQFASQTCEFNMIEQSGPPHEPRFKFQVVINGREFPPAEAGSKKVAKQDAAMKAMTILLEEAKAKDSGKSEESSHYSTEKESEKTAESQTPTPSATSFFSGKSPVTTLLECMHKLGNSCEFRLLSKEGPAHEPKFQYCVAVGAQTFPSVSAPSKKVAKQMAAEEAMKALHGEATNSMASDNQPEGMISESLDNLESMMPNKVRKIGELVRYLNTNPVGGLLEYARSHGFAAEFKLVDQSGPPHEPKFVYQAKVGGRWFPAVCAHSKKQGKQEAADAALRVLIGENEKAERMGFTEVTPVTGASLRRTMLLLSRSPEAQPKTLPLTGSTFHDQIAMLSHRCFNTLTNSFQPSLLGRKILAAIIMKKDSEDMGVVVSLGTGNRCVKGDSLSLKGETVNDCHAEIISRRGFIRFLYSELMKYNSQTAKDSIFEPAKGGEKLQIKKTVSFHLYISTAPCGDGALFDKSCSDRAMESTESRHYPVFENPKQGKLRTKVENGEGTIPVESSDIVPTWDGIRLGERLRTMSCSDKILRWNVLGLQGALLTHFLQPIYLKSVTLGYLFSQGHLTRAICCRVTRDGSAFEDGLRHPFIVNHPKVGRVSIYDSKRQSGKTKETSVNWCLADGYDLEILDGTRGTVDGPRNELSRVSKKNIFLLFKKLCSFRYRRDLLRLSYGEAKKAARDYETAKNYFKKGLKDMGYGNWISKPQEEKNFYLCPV
Description: FIG. 5b graphically illustrates data of a RNA editing ratio of APOBEC3D by RESSqPCR in K562 leukemia cells transduced with ADAR1 WT and ADAR1E912A mutant following 8-aza treatment (n=3). The values are normalized to the editing ratio observed in pCDH control cells.
As previously described (Yildirim et al., 2013), for each RNA editing site, two sets of primers were used: one pair detecting the WT transcript (an “A” base), and one pair detecting the edited transcript containing a “G” base representing inosine substitution. The forward (FW) outer and reverse (REV) outer primers flank the editing site and can be used for Sanger sequencing validation of each editing site, and also as a qRTPCR positive control to ensure that the editing region is detectable in cDNA. The 3′ ends of the FW inner and REV inner primers match either the WT A or edited G nucleotide, and an additional mismatch was incorporated two nucleotides upstream of the 3′ primer end to enhance allelic discrimination, as previously described for quantitative detection of transcripts harboring single nucleotide genomic mutations. RESSqPCR was performed as recently described (Yildirim et al., 2013) using highly validated RNA editing site specific primers for APOBEC3D. […] Relative RNA editing rates (Relative edit/WT RNA) were calculated using the following calculation: 2^-(Ct Edit-Ct WT).

[2] = system: normal CD34+ hematopoietic progenitors; assay: Secondary colony replating of normal CD34+ progenitors after SL/M2 stromal co-culture; type: cell-based, human; details: SL/M2 stromal co-cultures; 8-Aza 10-25 nM, SAR302503 100 nM
Description: FIG. 5h graphically illustrates data of a percentage of secondary colonies formed after replating primary colonies from normal bone marrow or BC CD34. cells treated with different dose of 8-aza (n=3).
FIG. 5i graphically illustrates data of a percentage of secondary colonies formed after replating primary colonies from normal bone marrow or BC CML following treatment.
H5100™ media (StemCell Technologies) along with different treatment. After 2 week of culture human cells were plated, in triplicate, in Methocult™ media (StemCell Technologies) for colony-forming and replating assays.
Following lentiviral transduction or in vitro culture with SL/M2 stroma, human cells were harvested, counted by trypan blue exclusion and 100-200 cells were plated per well of a 12-well plate in Methocultmedia. After 2 weeks, total colonies were counted and replated for secondary colony-formation assay.

[3] = system: BCR-ABL and JAK2 signaling; assay: qRT-PCR of BCR-ABL and JAK2 mRNA and p-CRKL, p-STAT5a Western blot in K562 cells; type: cell-based, human; details: 8-aza at increasing concentrations
Description: FIG. 14(a) graphically illustrates a RT-qPCR analysis of BCR-ABL and JAK2 mRNA in K562 cells transduced with pCDH vector control, lenti-ADAR1 WT, and lenti-ADAR1 mutant treated with 8-aza at increasing concentrations (n=3). FIG. 14(b) illustrates a Quantification of p-STAT5, p-CRKL, and β-actin protein expression in K562 cells transduced with pCDH vector control, lenti-ADAR1 WT, and lenti-ADAR1 mutant treated with 8-aza at increasing concentrations (n=3).

[4] = JAK2/BCR-ABL1 transduced normal CD34+ progenitors, SAR302503 100 nM and 600 nM on SL/M2 stromal cultures
[5] = JAK2/BCR-ABL1 transduced progenitors, two weeks SL/M2 stromal co-culture, 8-Aza 10-25 nM, SAR302503 100 nM

| self renewal capacity of normal CD34+ hematopoietic progenitors [2] | SMILES | ADAR1 p150 isoform expression (ADAR1 isoforms (p150); [4]) | ADAR1 expression (ADAR1 isoforms (p150)) | RNA editing activity (luciferase reporter) [1] | RNA editing activity (APOBEC3D RESSqPCR) (RNA editing of APOBEC3D) | let-7 miRNA biogenesis (let-7 miRNA; [4]) | let-7 miRNA biogenesis (let-7 miRNA; [5]) | LIN28B expression (LIN28B) | ADAR1's adenosine-to-inosine (A-to-I) editing activity (ADAR1) | effect on BCR-ABL and JAK2 signaling (qRT-PCR, p-CRKL and p-STAT5a Western blot) [3] |
| --- | --- | --- | --- | --- | --- | --- | --- | --- | --- | --- |
|  | Cc1cnc(Nc2ccc(OCCN3CCCC3)cc2)nc1Nc1cccc(S(=O)(=O)NC(C)(C)C)c1 [SAR302503, N-tert-Butyl-3-{5-methyl-2-[4-(2-pyrrolidin-1-yl-ethoxy)-phenylamino]-pyrimidin-4-ylamino}-benzenesulfonamide] | reduced ADAR1 p150 isoform expression | reduction in ADAR1 expression | reversed RNA editing activity in a dose dependent manner | reduction | restored let-7 miRNA biogenesis in a dose-dependent manner | restored let-7 miRNA biogenesis | reduction |  |  |
| not significantly impaired | Nc1ncnc2c1nnn2[C@@H]1O[C@H](CO)[C@@H](O)[C@H]1O [8-aza, 8-azaadenosine] |  | reduction in ADAR1 expression |  | reduction |  | restored let-7 miRNA biogenesis | reduction | reduced ADAR1's adenosine-to-inosine (A-to-I) editing activity | no effect on BCR-ABL and JAK2 signaling |
